Some test systems named below: HT29 colon; SK-MEL-5 melanoma; UACC-62 melanoma; 786-0 renal; HCT-15 colon; EKVX NSCLC; HCC-2998 colon; PC-3 prostate; U251 CNS; MCF7 breast.
What all share (test): inhibition of tumour cell growth, NCI panel, 48 h

SMILES strings stand for the structures. Several values for one entry are separate records, joined by “and”; a condition that tells them apart may be missing. Identical values can stand only once.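 Results reflect a 48-hour exposure of cells in 96-well plates to compound at five concentrations. At the GI50, growth is halved. TGI: total growth inhibition.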

For the molecule `Cc1cccc(-c2nn3c(c2-c2ccnc4ccc(C(N)=O)cc24)CCC3)n1`, the GI50 is 52.5 µM with HT29 colon; over 100 µM in the assay on SK-MEL-5 melanoma; 78.8 µM with UACC-62 melanoma; over 100 µM with 786-0 renal; over 100 µM in the assay on HCT-15 colon; over 100 µM in the assay with EKVX NSCLC. Further, the GI50 with HCC-2998 colon, in the assay with PC-3 prostate, with U251 CNS and in the assay with MCF7 breast was over 100 µM each time. For the same molecule, the TGI in the assay on HT29 colon, in the assay with SK-MEL-5 melanoma, with UACC-62 melanoma, in the assay with 786-0 renal, in the assay on HCT-15 colon and in the assay with EKVX NSCLC was over 100 µM each time. Further, the TGI with HCC-2998 colon, in the assay on PC-3 prostate, in the assay on U251 CNS and in the assay with MCF7 breast was over 100 µM throughout.

Turning to `COc1ccc(CCN2CCCN3C2=Nc2ccccc2S3(=O)=O)cc1`, the GI50 in the assay with HT29 colon was 0.323 µM; with SK-MEL-5 melanoma, 0.357 µM; with UACC-62 melanoma it was 0.744 µM; in the assay with 786-0 renal, 0.651 µM; in the assay on HCT-15 colon it was 0.342 µM; with EKVX NSCLC it was 18.8 µM. For the same molecule, the GI50 in the assay on HCC-2998 colon was 1.45 µM; with PC-3 prostate, 0.529 µM; with U251 CNS, 0.388 µM; with MCF7 breast, 0.329 µM. The TGI in the assay with HT29 colon was 17.5 µM; in the assay on SK-MEL-5 melanoma, 16.4 µM; in the assay with UACC-62 melanoma, over 100 µM; in the assay on 786-0 renal, over 100 µM; in the assay on HCT-15 colon, over 100 µM; with EKVX NSCLC, over 100 µM. Besides, the TGI with HCC-2998 colon, in the assay on PC-3 prostate, with U251 CNS and in the assay on MCF7 breast was over 100 µM throughout.

Regarding `CCNCCC1(CC)C(=O)NC(=O)NC1=O`, the TGI with HT29 colon, with SK-MEL-5 melanoma, in the assay on UACC-62 melanoma, in the assay on 786-0 renal, in the assay on HCT-15 colon and with EKVX NSCLC was over 100 µM in each case. Besides, the TGI in the assay on HCC-2998 colon, in the assay with PC-3 prostate, in the assay on U251 CNS and with MCF7 breast was over 100 µM throughout. In the assay with HCC-2998 colon, the GI50 is over 100 µM.

As for `C=CC(=O)N1C/C(=C\c2ccccc2)C(=O)/C(=C/c2ccccc2)C1`, the results for the GI50 with HT29 colon, in the assay with U251 CNS and with MCF7 breast were 0.528 µM, 0.376 µM and 0.395 µM, respectively. Besides, the TGI in the assay with HT29 colon amounted to 2.87 µM; in the assay on SK-MEL-5 melanoma, 3.12 µM; in the assay with UACC-62 melanoma it was 3.68 µM; with 786-0 renal, 2.54 µM; in the assay on HCT-15 colon, 4 µM; in the assay with EKVX NSCLC it was 9.42 µM. Also, the TGI was found to be 3.67 µM in the assay with HCC-2998 colon, 3.91 µM with PC-3 prostate, 2.62 µM with U251 CNS and 2.06 µM in the assay with MCF7 breast.

Regarding `COc1c2ccoc2cc2oc(=O)ccc12`, the TGI in the assay on HT29 colon, in the assay with SK-MEL-5 melanoma, in the assay with UACC-62 melanoma, in the assay with 786-0 renal, in the assay with HCT-15 colon and in the assay on EKVX NSCLC was over 100 µM throughout. Moreover, the TGI with HCC-2998 colon, with PC-3 prostate, in the assay on U251 CNS and with MCF7 breast was over 100 µM in each case.

With `O=C(c1ccc(OCCN2CCCCC2)cc1)c1c(-c2ccc(O)cc2)sc2cc(O)ccc12`, the GI50 with HT29 colon is 14.9 µM and 4.1 µM; in the assay on SK-MEL-5 melanoma it was 9.51 µM and 5.32 µM; with UACC-62 melanoma, 12 µM and 13.7 µM; with 786-0 renal, 4.5 µM and 7.58 µM; with HCT-15 colon, 5.51 µM and 2.67 µM; in the assay on EKVX NSCLC, 9.34 µM and 12.8 µM. For the same molecule, the GI50 was 6.37 µM and 19.1 µM with HCC-2998 colon; 3.9 µM and 11.7 µM with PC-3 prostate; 5.53 µM and 7.84 µM in the assay on U251 CNS; 1.48 µM in the assay with MCF7 breast. In addition, the TGI with HT29 colon was 32.3 µM and 33.4 µM; with SK-MEL-5 melanoma, 21.4 µM and 16.9 µM; with UACC-62 melanoma it was 25.8 µM and 27.2 µM; with 786-0 renal it was 18.2 µM and 27.6 µM; in the assay on HCT-15 colon, 20.8 µM and 13.2 µM; with EKVX NSCLC, 25.7 µM and 33.9 µM. Moreover, the TGI in the assay on HCC-2998 colon is 19.2 µM and 36.8 µM; in the assay with PC-3 prostate it was 18.9 µM and 35.7 µM; in the assay with U251 CNS it was 19.6 µM and 21.1 µM; in the assay on MCF7 breast it was 15.6 µM and 14 µM.

Take `COC(=O)[C@H]1[C@@H](O)[C@@]2(O)c3c(OC)cc(O[C@@H]4O[C@@H]([C@H](O)CO)CO[C@H]4OC)cc3O[C@@]2(c2ccc(OC)cc2)[C@@H]1c1ccccc1`: the GI50 in the assay on HT29 colon is 0.003 µM; with SK-MEL-5 melanoma it was 0.00662 µM; in the assay on UACC-62 melanoma, 0.00694 µM; with 786-0 renal, 0.0282 µM; in the assay on HCT-15 colon, 0.233 µM; in the assay with EKVX NSCLC, 0.00659 µM. Moreover, the GI50 with HCC-2998 colon is 0.00297 µM; with PC-3 prostate it was 0.00405 µM; with U251 CNS it was 0.00352 µM; in the assay with MCF7 breast, 0.00312 µM. The TGI in the assay on HT29 colon was 0.0142 µM; with SK-MEL-5 melanoma it was 0.0494 µM; in the assay with UACC-62 melanoma it was 0.0322 µM; with 786-0 renal it was 0.127 µM; with HCT-15 colon it was over 1 µM; in the assay with EKVX NSCLC, 0.105 µM. In addition, the TGI with HCC-2998 colon came to 0.0164 µM; in the assay on PC-3 prostate it was 0.0338 µM; with U251 CNS, 0.0202 µM; in the assay on MCF7 breast, 0.033 µM.

Turning to `O=C(CSc1nc2ccccc2nc1-c1ccccc1)Nc1ccc(Cl)cc1`, the GI50 was 25.1 µM in the assay on HT29 colon; 19.3 µM in the assay on SK-MEL-5 melanoma; 20.7 µM in the assay on UACC-62 melanoma; 16 µM in the assay on 786-0 renal; 76.7 µM with HCT-15 colon; 49.5 µM with EKVX NSCLC. In addition, the GI50 is 46.4 µM in the assay on HCC-2998 colon, 30.6 µM in the assay with PC-3 prostate, 23.6 µM in the assay with U251 CNS and 44.3 µM in the assay with MCF7 breast. In addition, the TGI in the assay with HT29 colon was over 100 µM; with SK-MEL-5 melanoma it was over 100 µM; in the assay with UACC-62 melanoma it was over 100 µM; in the assay on 786-0 renal, 32.3 µM; in the assay on HCT-15 colon it was over 100 µM; in the assay on EKVX NSCLC, over 100 µM. For the same molecule, the TGI in the assay on HCC-2998 colon is over 100 µM; with PC-3 prostate it was over 100 µM; in the assay with U251 CNS, 67.7 µM; in the assay with MCF7 breast, over 100 µM.

For the molecule `CCCOc1ccc(-c2nc(-c3ccc(N=Cc4ccc(N(CCOS(C)(=O)=O)CCOS(C)(=O)=O)cc4C)cc3)cs2)cc1`, the TGI was over 73.9 µM in the assay on HT29 colon; over 71.3 µM in the assay on SK-MEL-5 melanoma; over 69.6 µM with UACC-62 melanoma; 26.5 µM in the assay with 786-0 renal; over 72.2 µM in the assay on HCT-15 colon; 56.9 µM with EKVX NSCLC. The TGI was 26.8 µM in the assay on HCC-2998 colon, 77.9 µM with PC-3 prostate, 52.4 µM in the assay with U251 CNS and over 100 µM with MCF7 breast.

Values taken from PubChem BioAssay (NCI).
